The record followed here is PubChem BioAssay (NCI).

Common to all, as to test: DTP human tumour cell line panel, 48 h
For experiment [1], the system named is EKVX NSCLC.
The test system of experiment [2] is HOP-92 NSCLC.
The test system of experiment [3] is HT29 colon.
For experiment [4], the system named is IGROV1 ovarian.
Experiment [5] deals with KM12 colon.
In experiment [6] the test system is NCI-H23 lung.
The test system of experiment [7] is NCI-H522 lung.
Experiment [8] has as its system OVCAR-3 ovarian.
Experiment [9] deals with OVCAR-5 ovarian.
Experiment [10] has as its system U251 CNS.

Values joined by “and” are separate entries in the source; they are usually repeats but may differ in a detail not shown here. Identical values can stand only once.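 Interpolation was linear, between the two tested concentrations surrounding the appropriate level; five concentrations were tested over 48 hours in 96-well plates. The concentration for 50% growth inhibition is given as GI50. TGI: concentration producing complete growth inhibition.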 Where only a bound is given, the exact number is not on record here.

Broadly, the GI50 is the concentration giving 50% growth inhibition. In general, TGI refers to the concentration at which net growth stops. Lower therefore signals greater sensitivity of the cells. For `COc1cc2c(cc1OC)-c1c(c3ccc([N+](=O)[O-])cc3c(=O)n1CCCBr)C2=O`, the GI50 was above 100 µM in experiment [1]; above 100 µM in experiment [2]; 61.9 µM in experiment [3]; 51.8 µM in [4]; 29.8 µM in experiment [5]; 3.32 µM in experiment [6]. Moreover, the GI50 in experiment [7] was 6.41 µM; in experiment [8], 71.1 µM; in experiment [9], above 100 µM; in experiment [10] it was 5.14 µM. Moreover, the TGI in [1] is above 100 µM; in experiment [2], above 100 µM; in experiment [3], above 100 µM; in [4], above 100 µM; in experiment [5] it was above 100 µM; in [6] it was 67.5 µM. Also, the TGI in experiment [7], in [8], in [9] and in experiment [10] was above 100 µM throughout.

Regarding `NC1=C(O)/C(=N/NS(=O)(=O)c2ccccc2)C(c2cccc(Cl)c2)O1` (configuration not stated), the TGI in experiment [1] is above 100 µM; in experiment [2], 53 µM; in [3] it was 55 µM; in [4], above 100 µM; in experiment [5] it was above 100 µM; in [6], 73.5 µM. The TGI is 26.4 µM in experiment [7], 55.5 µM in experiment [8], above 90.4 µM in [9] and 55.7 µM in experiment [10].

`CC/C(=C(/c1ccc(Cl)cc1)c1ccc(OCCCN(C)C)cc1)c1ccc(OC)cc1`: the GI50 is 5.76 µM in experiment [1]; 0.829 µM in [2]; 1.06 µM in experiment [3]; 3.09 µM in experiment [4]; 2.55 µM in experiment [5]; 7.43 µM in [6]. In addition, the GI50 in experiment [7] was 6.56 µM; in [8] it was 3.27 µM; in experiment [9], 6.54 µM; in experiment [10], 1.66 µM. Moreover, the TGI in experiment [1] was determined as 12.6 µM; in [2], 1.97 µM; in [3], 2.42 µM; in [4], 10.8 µM; in experiment [5] it was 10.1 µM; in experiment [6], 15.1 µM. Further, the TGI was 13.7 µM in [7], 10.5 µM in experiment [8], 14.2 µM in [9] and 5.4 µM in [10].

Turning to `Cc1cnc2n(c1=O)Cc1ccccc1CO2`, the GI50 is 20.8 µM in [1]; 19.3 µM in experiment [2]; 26.3 µM in experiment [3]; 14.4 µM in experiment [4]; 18 µM in experiment [5]; 21.1 µM in experiment [6]. In addition, the GI50 in experiment [7] is 3.8 µM; in experiment [8], 16.6 µM; in experiment [9] it was 27.4 µM; in experiment [10] it was 15.7 µM. Moreover, the TGI in [1] amounted to 45.1 µM; in experiment [2], 44.3 µM; in experiment [3] it was 96.9 µM; in [4], 32.5 µM; in experiment [5], 34.3 µM; in experiment [6], 60.5 µM. The TGI in experiment [7] is 18.8 µM; in [8], 34.3 µM; in experiment [9] it was above 92.4 µM; in experiment [10], 29.9 µM.

On to `CN(CC(=O)O)Cc1c[nH]c2ccccc12`, for which the TGI in experiment [1], in experiment [2], in experiment [3], in [4], in [5] and in [6] was above 100 µM each time. Besides, the TGI in experiment [7], in experiment [8], in [9] and in experiment [10] was above 100 µM each time.

Turning to `Nc1c(C(=O)Nc2cccc3ccccc23)sc2nc3c(cc12)CCCCCC3`, the GI50 in [1] is 2.9 µM; in experiment [2] it was 6.58 µM; in experiment [3], 1.67 µM; in experiment [4], 2.31 µM; in [5], 1.39 µM; in experiment [6], 1.97 µM. For the same compound, the GI50 in experiment [7] was 0.865 µM; in experiment [8], 0.979 µM; in experiment [9], 2.7 µM; in [10] it was 1.87 µM. In addition, the TGI in experiment [1] is above 50 µM; in experiment [2] it was above 50 µM; in [3] it was 5.58 µM; in experiment [4], above 50 µM; in experiment [5], above 50 µM; in [6] it was above 50 µM. Further, the TGI was 4.33 µM in experiment [7], 2.8 µM in [8], above 50 µM in experiment [9] and above 50 µM in experiment [10].

As to `O=c1c2ccc(Br)cc2nc(-c2ccccc2)n1NC1OC(CO)C(O)C(O)C1O` (configuration not stated), the TGI in [1], in experiment [2], in [3], in [4], in experiment [5] and in experiment [6] was above 100 µM throughout. Further, the TGI in [7], in experiment [8], in experiment [9] and in experiment [10] was above 100 µM throughout.

With `COc1ccc(/C=C\c2cc(OC)c(OC(C)=O)c(OC)c2)cc1`, the TGI in [1] was above 100 µM; in experiment [2] it was 68.3 µM; in [3] it was 47.9 µM; in [4], above 100 µM; in experiment [5], 61.2 µM; in experiment [6], 63.4 µM. The TGI is 39.7 µM in experiment [7], above 100 µM in [8], 88.8 µM in experiment [9] and 23.1 µM in experiment [10].

As for `COc1nc(C(Cl)(Cl)Cl)c(Cl)c(OC)c1Cl`, the GI50 in experiment [1] is above 55.4 µM; in [2], above 40.4 µM; in [3] it was above 57 µM; in experiment [4], above 58.5 µM; in experiment [5], above 56.7 µM; in experiment [6] it was above 31.6 µM. In addition, the GI50 in [8] was above 43.4 µM. For the same compound, the TGI in [1] is > 94.7 µM and 78.3 µM; in [2], > 59.3 µM and 62 µM; in [3], 96.5 µM; in experiment [4], 89.8 µM; in experiment [5] it was > 91 µM and 70.1 µM; in experiment [6], > 31.6 µM and 79.4 µM. In addition, the TGI in experiment [7] was > 31.6 µM and 70.4 µM; in experiment [8], > 61.1 µM and 72.6 µM; in experiment [9] it was > 72.4 µM and 78.7 µM; in experiment [10], 69.9 µM.
